Results as given in patent US20090118194A1, “Measurement of melanocortin peptides and uses thereof” (Auckland UniServices Limited, priority 2002, published 2009).
“Also recorded” adds a separate entry of the source.

Assays:
3T3 L1 adipocytes [1] = test: Triglyceride release from 3T3 L1 adipocytes (peptide stimulation assay); type: cell-based, murine; conditions: 4 hours, 2 assays combined
Method: (§1) • 2.1 The objective of this study was to determine the effects of a-MSH and desacetyl a-MSH on leptin and triglyceride production in murine 3T3 L1 adipocytes. • 2.2 Pre-adipocytes were seeded in 6-well plates and 2 days post confluence (Day 2) were differentiated with […] indomethacin+5 ug/mL insulin (described in previous documents). • 2.3 On Day 13 adipocytes were stimulated with 4 doses each of a-MSH and desacetyl a-MSH (or no peptide added) for 4 hours. • 2.4 Medium was removed from the wells and leptin and triglyceride levels measured. • 2.5 Intracytoplasmic lipid accumulation was measured by staining with Oil red O.
(§2) • 4.1 Medium=a-MEM+0.5% BSA (100 mL a-MEM+0.5 g BSA) • 4.2 Doses of a-MSH and da-MSH (stocks in −80° C. freezer=1 ug/ul), using MW of a-MSH. • 1 M=1665 g/L=1665 mg/mL • 1 mM=1.665 mg/mL • 1 uM=1.665 ug/mL • 1.665 ug/mL=3.3 ug/2 mL in each well • 1/10 dilution of 1 ug/ul (stock)=0.1 ug/ul. 33 ul=3.3 ug. • Prepare 1/10 dilution of freezer stock (1 ug/ul) to make 0.1 ug/ul, using a-MEM+0.5% BSA as diluent. • Make 3 serial dilutions of 1/10 to add 33 ul to each well in 6-well plate. • Doses are in triplicate wells, so require 3×33=99 ul for each dose.
• 5.1 Assay is performed on Day 14 after initiation of cell differentiation. […]

3T3 L1 adipocytes [2] = test: Leptin production in differentiated 3T3 L1 adipocytes (peptide stimulation assay); type: cell-based, murine; conditions: for mean leptin level: one assay; for Leptin Response, Mean: 4 hours, 2 assays combined
Method: as §1, §2
• 5.1 Assay is performed on Day 14 after initiation of cell differentiation. On day prior to stimulation assay, replace growth medium+insulin with medium prepared in 4.1 (a-MEM+0.5% BSA) and return plates to incubator. • 5.2 On Day of assay prepare peptide solutions as in 4.2 and IBMX as in 4.3. • 5.3 Replace medium with the same medium supplemented with 1 mM IBMX (as in 4.3) and allow cells to equilibrate in incubator for 10 minutes. • 5.4 Add increasing concentrations of peptides (or none), 33 ul per well, swirl gently to mix, and place plates in incubator for 4 hours. • 5.5 At the end of the incubation remove media from wells and store triplicate aliquots in −20° C. freezer for measurement of leptin and triglycerides. • 5.6 Stain adipocytes in wells with Oil Red O as in “Oil Red O Staining of Adipocyte” document. • 5.7 After eluting the stain, remove cells from wells as in 6.0 for measuring total protein.
Leptin Assays Quantikine M kit (R & D Systems Inc, UK # MOB00 Abingdon, Oxon) and DSL kit (DSL #10-24100, Australia PTY Ltd, NSW, Australia) were used. […] The Quantikine M kit is preferred as it is more sensitive and precise.

[3] = system: food deprived Wistar rats; test: Food intake after i.c.v. injection of melanocortin peptides; type: in vivo, rat
Method: Adult male Wistar rats (50-60 days old, 230-260 g at the beginning of the experiment) were maintained in individual cages under controlled temperature (23° C.) and reverse lighting (1000-2200 lights off). Standard laboratory chow (NZ Stockfeed Ltd) and tap water were available ad libitum during the adaptation phase. During this time animals were handled daily to minimize the effects of stress on food intake during experiments. Body weight was measured daily before, and one week after cannulation. Any animal showing signs of illness, such as weight loss, poor grooming, or decreased activity, was removed from the study. All animal procedures undertaken were approved by the Animal Ethics Committee of the University of Auckland.
After 7 days of adaptation, animals were subject to cannula placement surgery under 3% halothane/O2 anaesthesia. A permanent lateral ventricle infusion cannula (6-mm 21 gauge) was placed on top of the dura at 7.5 mm anterior from stereotaxic zero, 1.5 mm to the right of the mid-sagittal line, and secured to the skull with dental cement. Animals were allowed at least 7 days to recover from surgery before injections.
Rats were fasted overnight before the day of experiment.
Under 3% halothane/O2 anaethesia rats were infused icv through a 12-mm 27-gauge needle, connected to 20-cm length tubing attached to a syringe. Infusions were performed in the early dark phase between 1000 and 1130 hr using motor driven infusion pumps at a rate of 1.0 μl/min over 10 min. Movement of a 0.2 ml air-space introduced between the 0.9% saline solution filling the PE10 tubing-syringe system and the test solution served as an indicator of a successful infusion. […]
Following infusion, the cannula was left in place for 1 min, removed, and the animal returned to its cage with fresh pre-weighed food and water. At 3 h post-injection, the pellets and collected food spillage in the cage, were weighed and this weight was subtracted from the initial weight to quantify the amount of food eaten over 3 h.
The significance of treatment effects was evaluated using one-way ANOVA (Systat10 package)

hypothalamic proteins = test: Hypothalamic proteins after subcutaneous injection of new-born rats for 14 days; type: in vivo, rat; conditions: hypothalamus, s.c. for 14 days
Method: Tables 3 and 4 represent data from a neonatal study, where the two MSH peptides were injected subcutaneously into new-born rats for 14 days, and the changes in hypothalamic proteins assessed with the same method as the above study.
Adult female Wistar rats were housed in plastic cages and kept on a 12-h dark/light cycle. Animals received tap water and rat pellets ad libitum and were mated with males of the same strain. Each litter of new-born Wistar rats was culled to 9 pups per mother.
PBS or freshly prepared peptide solutions made up freshly in PBS containing 0.1% BSA were injected subcutaneously once per day in a volume of 40 μl for 14 days. Animals were injected on day 14 and 1 h later they were euthanised using sodium pentobarbital.

- creatine kinase brain (p1079), level compared to control (hypothalamic proteins): 1.9 fold increase
- creatine kinase brain (p1251), level compared to control (hypothalamic proteins): 2.1 fold increase
- dihydropyrimidinase-like 2 (p537), level compared to control (hypothalamic proteins): 2.5 fold decrease
- protein kinase C inhibitor (p1790), level compared to control (hypothalamic proteins): 1.8 fold increase
- similar to phosphoglycerate kinase (p1363), level compared to control (hypothalamic proteins): 1.6 fold increase
- triosephosphate isomerase (p1339), level compared to control (hypothalamic proteins): 2.1 fold increase
Sequence: SYSMEHFRWGKPV [desacetyl-α-MSH, non-acetylated form of α-MSH, obtained from Bachem]
- TRIGLYCERIDE RESPONSE, MEAN (3T3 L1 adipocytes [1]; 100 nM): 111.4 % OF CONTROL
- TRIGLYCERIDE RESPONSE, MEAN (3T3 L1 adipocytes [1]; 1000 nM): 110.0 % OF CONTROL
- effect on leptin production (3T3 L1 adipocytes [2]; 1 nM single peptide): appears to reduce leptin production
- mean leptin level (3T3 L1 adipocytes [2]; 1 nM single peptide): 480.4 pg/mL
- Leptin Response, Mean (3T3 L1 adipocytes [2]; 1 nM): 95.4 % of control
- Leptin Response, Mean (3T3 L1 adipocytes [2]; 10 nM): 96.3 % of control
- mean leptin level (3T3 L1 adipocytes [2]; 100 nM single peptide): 528.0 pg/mL
- Leptin Response, Mean (3T3 L1 adipocytes [2]; 100 nM): 97.7 % of control
- Leptin Response, Mean (3T3 L1 adipocytes [2]; 1000 nM): 109.4 % of control
- effect on food intake over 3 h vs PBS ([3]; 10 μg i.c.v., first study): not significantly different from the PBS treated control group
- effect on food intake over 3 h vs PBS ([3]; 10 μg i.c.v., first study, listed as Desacetyl-α-MSH): no significant effect on feeding
- effect on food intake over 3 h vs PBS ([3]; 50 μg i.c.v., second study): significantly reduce food intake; also recorded: significantly decreased food intake
- ATP synthase, H+ transporting (p1379), level compared to control (hypothalamic proteins): 1.7 fold decrease
- RIKEN cDNA0610011D08 (p1381), level compared to control (hypothalamic proteins): 3.3 fold increase
- cofilin (p1854), level compared to control (hypothalamic proteins): 1.9 fold increase
- heat shock protein (p1445), level compared to control (hypothalamic proteins): 2.0 fold increase
- hypothetical protein XP_112457 (p1936), level compared to control (hypothalamic proteins): 2.2 fold increase
- prohibitin homologue (p1458), level compared to control (hypothalamic proteins): 1.7 fold increase
- similar to SH3-containing protein SH3GLB2 (p1557), level compared to control (hypothalamic proteins): 4.0 fold increase
- spectrin fragment (p1362), level compared to control (hypothalamic proteins): 2.5 fold decrease
- stathmin (p1610), level compared to control (hypothalamic proteins): 2.6 fold increase
- stathmin P*Ser38 (p1588), level compared to control (hypothalamic proteins): 1.7 fold increase
- tubulin beta (p1520), level compared to control (hypothalamic proteins): 1.6 fold increase
